In ChEMBL document CHEMBL5584342, “The Missing Link(er): A Roadmap to Macrocyclization in Drug Discovery” (J Med Chem, 2024):

Test: Lipophilicity, log D of compound at pH 7.4
Settings: buffer

- logD: 3
Compound: CO[C@H]1/C(F)=C/C[C@H](C)[C@@H](C)S(=O)(=O)NC(=O)c2ccc3c(c2)N(C[C@@H]2CCO[C@H]21)C[C@@]1(CCCc2cc(Cl)ccc21)CO3
